Two molecules from publication PMC8442276, “Inter-laboratory comparison of water solubility methods applied to difficult-to-test substances” (BMC Chemistry, 2021) can be followed below.

The nature of data set [1]: Water solubility by column elution (generator column) method, OECD 105. Format: physicochemical. From the text:
The column elution method as applied in this ring test is described in several regulatory test guidelines. The typical generator column consists of two concentric glass columns. The inner, narrow column is packed with test substance. The solid test substance is typically dissolved in a volatile solvent which is then pre-loaded onto an inert support phase (e.g. glass beads, diatomaceous earth, chromatographic support material) by rotary evaporation to coat the support phase and then remove the solvent. Alternatively, some practitioners load the column directly with ca. 0.5 g of neat test substance which is retained with plugs of fused silica wool. The outer column provides temperature control (20 °C) as it is connected to a recirculating water bath. Reagent grade water is pumped through the inner column contacting the test substance column at a low flow rate (i.e. < 1 mL/min). The water eluate is collected, extracted and analyzed. Consecutive fractions are collected until the concentration of test substance in water plateaus indicating equilibrium water solubility has been reached. The experiment is then repeated at a flow rate approximately one-half that applied in the first trial to confirm that equilibrium has been reached. In this ring test, two of the five participating labs applied dodecahydrotriphenylene dissolved in solvent to an inert support phase. The solvent was evaporated and the support phase coated with the test compounds. The remaining three laboratories packed the columns with neat test substance. Across the five laboratories, the column flow for the first run ranged from 0.4 to 0.8 mL/min. The volume of each fraction collected for analysis ranged from 5 to 25 mL. Details of the experimental parameters used by each of the participating labs in applying the generator column method are listed in Additional file 1: Table S1.

Data set [2] can be described thus: Water solubility by slow-stir method. Format: physicochemical. As to conditions: for solubility: reagent grade water in sealed all-glass aspirator bottles. The method, then:
The slow-stir water solubility method uses glass vessels, at least one liter in volume, to which reagent grade water is added. The typical bottle contains a sampling port or spigot at the bottom of the vessel and is filled to a water column height approximating that of the vessel’s tapered shoulders. Slow stir systems are depicted in Additional file 1: Figure S1. This configuration minimizes headspace but maximizes the test substance—water interface. […] The top opening of the vessels is tightly sealed to minimize volatile loss of neat test substance from the system. The excess test substance provides a supply of free product to dissolve and, in the case of volatile substances, evaporate into the headspace. The system is mixed with a minimal vortex imparting just enough energy to move the small dollop of test substance and impart a slight dimple (< 0.5 cm) below the water surface. Care is taken to mix slowly so as to avoid emulsifying the test substance. Water samples are withdrawn from the bottom sampling port of the vessel, extracted and analyzed. As necessary, specific sampling techniques for dissolved volatile organics are used including: the use of gas tight syringes, minimizing sample transfer, and reduced storage duration prior to analysis. Sampling from slow-stir systems occurs over daily or weekly intervals until analysis indicates equilibrium has been reached representing maximum water solubility. Larger test (i.e. 8–20 L) vessels are generally used when the associated analytical method requires extraction of large water sample volumes and also provide a greater surface-to-volume ratio which can be advantageous, especially for surface active compounds. For substances where the solubility is extremely low (i.e. < 10 µg/L) lengthy equilibration periods (weeks-months) may be needed.
The slow-stir water solubility method is not currently cited in existing regulatory guidelines though a number of publications describe its application to difficult-to-test liquid compounds [11–14]. In this ring test, each laboratory employed all glass aspirator bottles with sampling spigots located toward the bottom of the vessels. Water volumes ranged from 0.8 to 4 L with initial vessel headspace accounting for 5 to 20% of the entire vessel volume. n-Hexylcyclohexane loadings ranged from 0.4 to 400 mg/L. The vessels were sealed with Teflon™, polypropylene, glass or high density polyethylene screw plugs or stoppers. Water was stirred at a rate imparting little to no visible vortex and stirring rates were estimated between 80 and 250 rpm. The specific experimental parameters used by each of the participating labs in applying the slow-stir method are listed in Additional file 1: Table S2.

The structures appear in SMILES notation. In brackets after ≈: the same amount, converted by molar mass. Read-outs that look alike come from different tables or passages of the source. Marks after values point to notes of the source that are not given here.

With `C1CCc2c(c3c(c4c2CCCC4)CCCC3)C1` [Dodecahydrotriphenylene], the “Mean Measured Concentration (water solubility)” value in data set [1] (Laboratory A, column packed directly with neat solid) is 2.8^p µg/L; in data set [1] (Laboratory B, test substance on support), 3.2 µg/L; in data set [1] (Laboratory C, test substance on support) it was 2.1 µg/L; in data set [1] (Laboratory D, column packed directly with neat solid), 2.3^p µg/L; in data set [1] (Laboratory E, column packed directly with neat solid, statistical outlier, not included in mean) it was 0.66 µg/L. The “Mean measured water solubility, inter-laboratory mean” value in data set [1] (column elution, 20 °C, mean of n = 4 labs (Lab E excluded as outlier)) turned out to be 0.0026 µg/mL. For the same molecule, the “Range of measured water solubility values across labs” value in data set [1] (column elution, 20 °C, n = 4 labs) fell in the range of 0.0021 to 0.0032 µg/mL.

`CCCCCCC1CCCCC1` [n-Hexylcyclohexane]: the “Mean measured water solubility, inter-laboratory mean” value in data set [2] (20 °C, mean of n = 5 labs) was 0.014 µg/mL. The solubility was 0.014 µg/mL (≈ 0.0832 µM) in data set [2] (20 °C, mean of n = 5 labs, read-out: Mean measured water solubility, inter-laboratory mean); 0.011 to 0.016 µg/mL (≈ 0.0654 to 0.0951 µM) in data set [2] (20 °C, n = 5 labs, read-out: Range of measured water solubility values across labs); 0.012 µg/mL (≈ 0.0713 µM) in data set [2] (20 °C, water, thermodynamic from solid, Laboratory B, second attempt, read-out: Mean measured Concentration (water solubility)); 0.016 µg/mL (≈ 0.0951 µM) in data set [2] (20 °C, water, thermodynamic from solid, Laboratory E, second attempt, read-out: Mean measured Concentration (water solubility)); 0.015 µg/mL (≈ 0.0891 µM) in data set [2] (water, thermodynamic from solid, Laboratory A, read-out: Mean measured Concentration (water solubility)); 0.0056 µg/mL (≈ 0.0333 µM) in data set [2] (water, thermodynamic from solid, Laboratory B, first attempt, equilibrium not demonstrated, not included in mean, read-out: Mean measured Concentration (water solubility), first attempt). Moreover, the solubility in data set [2] (water, thermodynamic from solid, Laboratory C, read-out: Mean measured Concentration (water solubility)) worked out at 0.014 µg/mL (≈ 0.0832 µM); in data set [2] (water, thermodynamic from solid, Laboratory D, read-out: Mean measured Concentration (water solubility)), 0.011 µg/mL (≈ 0.0654 µM); in data set [2] (water, thermodynamic from solid, Laboratory E, first attempt, equilibrium not demonstrated, not included in mean, read-out: Mean measured Concentration (water solubility), first attempt) it was 0.0057 µg/mL (≈ 0.0339 µM).
